Data from US7445931B2, “Compositions and methods for enrichment of neural stem cells using ceramide analogs” (Bresagen, Inc., priority 2002, dated 2008).

Key:
[1] = system: differentiating ES cells; experiment: Apoptosis (TUNEL) in ceramide-depleted differentiating ES cells and its restoration by ceramide or analogs; assay type: cell-based, mouse; conditions: for reduction of the degree of apoptosis: EB8 and NP2 stage, 25 μM FB1 or 50 nM myriocin for 48 hours
Protocol: Fumonisin B1 (FB1) or myriocin-treated (ceramide-depleted) differentiating ES cells were incubated with natural ceramide. To prepare the natural ceramide, 50 mg of EBs or NPs were resuspended in 500 μl of water, and after phase separation with 500 μl of CHCl3/CH3OH (1:1 by vol.) the neutral lipids were recovered from the lower phase. The neutral lipids were evaporated to dryness with a gentle stream of nitrogen and redissolved in 1 ml of CHCl3. The solution was applied to a silicic acid gel column (0.5 g) and fatty acids and cholesterol washed out with another 15 ml of CHCl3 (Dasgupta and Hogan, 2001 J. Lipid Res., 42:301-308). The ceramide fraction was then eluted with 20 ml of CHCl3/acetone (9:1, by vol.), evaporated to dryness, and the residue (approximately 6 nmoles of ceramide) dissolved in 20 μl of ethanol containing 2% dodecane (vol./vol.). Aliquots of 5 μl were mixed with 1 ml of medium, yielding a final concentration of 1.5 μM natural ceramide for induction of apoptosis (Ji et al., 1995 FEBS Lett., 358:211-214).
Differentiating ES cells at the EB8 cells were dissociated and grown for 24 hours on laminin/ornithin-coated cover slips (NP1 stage) in DMEM/F12 (50/50), supplemented with 1×N2 and 20 ng/ml FGF-2. Cells were incubated for 3 hours with 10 μM bromodeoxyuridine (BrdU) and the TUNEL assay or immunostainings performed after 5 hours of incubation. For immunostaining, cells were fixed with 4% paraformaldehyde in phosphate-buffered saline (PBS). Fixed cells were permeabilized with 0.2% Triton X-100 in PBS for 5 minutes at room temperature and immunostaining performed as described previously (Bieberich et al., 2001 J. Biol. Chem., 276:44396-44404). The nuclei were stained by treatment with 2 μg/ml Hoechst 33258 in PBS for 30 minutes at room temperature. Apoptotic nuclei were stained using the fluorescein FragEL TUNEL assay according to instructions of the manufacturer (Oncogene).
The degree of apoptosis in differentiating ES cultures was determined since it was previously proposed that ceramide elevation induces apoptosis in NPs (Bieberch et al., 2001 J. Biol. Chem., 276:44396-44404). […] Apoptosis was elevated at the EB8 stage ([…]), and was highest at the NP2 stage (35+/−5%). […] Apoptosis was restored by the addition of 30 μM N-acetyl sphingosine (C2-ceramide), 80 μM of the novel ceramide analog N-oleoyl serinol (S18), or 1 μM of natural ceramide that was extracted from differentiating ES cells.

[2] = system: Mouse neuroblastoma (F-11) cells; experiment: Induction of apoptosis in mouse neuroblastoma cells (Hoechst 33258 staining); assay type: cell-based; conditions: 24 hours
Protocol: Mouse neuroblastoma (F-11) cells were incubated for 24 hours in 0.1, 0.2, 0.5, or 1.0 μM of laurylgallate (Aldrich). Apoptosis was determined by punctate staining of condensed nuclei with Hoechst 33258 (Sigma, […] medium for 30 minutes at room temperature).

[3] = system: PAR-4; experiment: PAR-4 immunoblot after transfection with PAR-4 antisense morpholino; assay type: cell-based, mouse; conditions: NPs transfected with 2 nmoles morpholino
Protocol: (§1) Endogenous expression of PAR-4 was suppressed by transfection of differentiating ES cells at the NP1 stage with 2 nmoles (per well in 24 wells plate) of the morpholino-based antisense oligonucleotide 5′cgatagccgccggtcgccatgttcc3′(SEQ ID NO:16) (see Guo et al., 1998, Nature Med., 4:957-962; Guo et al., 2001 Brain Res, 903:13-25) following the instructions of the manufacturer (GeneTools) in 0.5 ml of serum-free DMEM/F-12, 1XN2 supplemented with 20 ng/ml FGF-2. For induction of apoptosis, the novel ceramide analog S18 (40-100), N-acetyl sphingosine (C2 ceramide, […], or natural ceramide isolated from EBs (0.5-1.5 μM) was added 48 hours after transfection with the anti-PAR-4 morpholino, and the degree of apoptosis quantified after 15-20 hours using TUNEL assays with paraformaldehyde-fixed cells as described above.
The amount of protein was determined following a modified Folin phenol reagent (Lowry) assay essentially as described in Wang and Smith (1975 Anal. Biochem., 63:414-417). Protein extracted with detergent was precipitated according to the Wessel and Fluegge method (Wessel and Flugge, 1984 Anal. Biochem, 138:141-143). SDS-PAGE was performed using the Laemmli method followed by immunoblotting (Laemmri, 1970 Nature, 227:680-685).

[4] = system: differentiating ES cells (NPs), PAR-4; experiment: S18-induced apoptosis (TUNEL) in NPs after PAR-4 antisense knockdown or PAR-4-RFP overexpression; assay type: cell-based, mouse
Protocol: For construction of PAR-4-REP cDNA, RT-PCR was performed with the oligonucleotide primer pair sense 5′atggcgaccggcggctatcg3′ (SEQ ID NO:14) and antisense 5′ctaccttgtcagctgcccaacaac3′(SEQ ID NO:15), using the first strand cDNA generated from embryoid bodies (EB8 stage) as template for the amplification reaction. The primers were endowed with the restriction enzyme cleaving sites Eco47III (sense) and SaII (antisense) for ligation of the PAR-4 specific amplification product into the multiple cloning site of HcRFP, a vector that encodes a far-red shifted variant of red fluorescent protein (Clontech). Differentiating ES cells at the NP1 stage were transfected with the PAR-4-RFP construct using the lipofectamine 2000 procedure according to the manufacturer's instructions (Invitrogen). The transfected cells were incubated in DMEM F12 (50/50), supplemented with 1×N2 and 20 ng/ml FGF-2, and the TUNEL assay or immunostainings were performed after 48 hours of incubation and NP formation. For depletion of ceramide, differentiating ES cell were incubated with 25 μM fumonisin B1 or 50 nM myriocin 48 hours prior to transfection with the PAR-4-RFP vector, and the inhibitor maintained in the medium throughout the post-transfection period. For induction of apoptosis, the novel ceramide analog S18 (40-100 μM), N-acetyl sphingosine (C2-ceramide, 10-30 μM), or natural ceramide isolated from EBs (0.5-1.5 μM) was added 48 hours after transfection with the PAR-4-RFP cDNA, and the degree of apoptosis quantified after 15-20 hours using TUNEL assays with paraformaldehyde-fixed cells as described above.
as §1

[5] = system: differentiating ES-J1 cells; experiment: Apoptosis (TUNEL staining, cell death) in differentiating mouse ES cells incubated with ceramide analogs; assay type: cell-based; conditions: 15 hours with 75 μM S16 or S18, or 35 μM C2-ceramide
Protocol: In vitro neural differentiation of mouse ES cells (ES-J1, ES-D3) followed a serum deprivation protocol as described previously (Hancock, et al., 2000 Biochem. Biophys. Res. Commun., 271: 418-421). The differentiation stages are outlined in FIG. 2. Briefly, ES cells were grown on gamma-irradiated feeder fibroblasts for four days in Knockout DMEM/15% Knockout serum replacement, supplemented with ESGRO (LIF; Chemicon; Cat No. ESG1106) at a concentration of 10^3 units/ml medium. ES cells were then grown for another four days on gelatin-coated bacterial culture dishes without a fibroblast feeder layer, and were then grown for three days in Knockout DMEM/15% heat-inactivated ES qualified Fetal Bovine Serum, supplemented with 10^3 units LIF per ml of medium. Upon trypsinization, ES cells were transferred to bacterial culture dishes without gelatin, and embryoid body (EB) formation was induced for four days in Knockout DMEM/10% heat-inactivated ES qualified FBS without LIF (EB4 stage). On the fifth day, floating and loosely attached EBs were rinsed off and transferred to tissue culture dishes. The EBs were allowed to attach to the tissue culture dish surface by incubation for another 24 hours in Knockout DMEM with 10% heat-inactivated ES qualified fetal bovine serum. Neural differentiation due to serum deprivation was induced by cultivation of the EBs for three days in DME/12 (50/50), supplemented with 1×N2 (Invitrogen/Life Technologies; Cat No. 17502, dilution of 1:100) but without serum (EB8 stage). Serum-deprived EBs were then trypsinized, plated on poly-L-ornithine/laminin-coated tissue culture dishes and grown for four days in DMEM/F12 (50/50), supplemented with N2 and 10 ng/ml FGF-2, but without serum. This incubation period is referred to as neuroprogenitor (NP) stage due to commitment of neuroepithelial precursor cells to neuroprogenitor cells, and/or due to the selective expansion of neural progenitor cells in the FGF-2 containing serum-free medium. These cells have committed during the EB stages and were expanded during the NP stage. NPs grown for 48 hours upon replating of trypsinized EBs were referred to as the NP2 stage. On the fifth day of NP formation, the medium was changed to Neurobasal (Invitrogen/Life Technologies; Cat No. 21103-049), with 5% heat-inactivated FBS, and the cells were incubated for another seven days. During this time, NPs fully differentiate to glial cells and neurons. Cells cultured for 24 hours or 96 hours upon changing the medium were referred to as the D1 or D4 stage, respectively.
ES cells were cultured and differentiated to the EB4, EB8, NP2, or D4 stage following the protocol as described above. The ceramide analog S18 was dissolved in ethanol at a concentration of 100 mM and then added to the cells at a final concentration of 75 μM in medium. The cells at the EB8 stage were incubated for 48 hours in the presence of the ceramide analog and were then transplanted into mouse brains.
Differentiating ES cells were grown on cover slips and fixed with 4% paraformaldehyde in phosphate-buffered saline (PBS). Fixed cells were permeabilized with 0.5% Triton X-100 in PBS for 5 minutes at room temperature and unspecific binding sites were saturated by incubation with 3% ovalbumin in PBS for 1 hour at 37° C. The cover slips were then incubated with 5 μg/ml primary antibody (anti-ceramide clone 15B4 mouse IgM, Alexis; anti-PAR-4 rabbit IgG, Santa Cruz; anti-PCNA rabbit IgG, Santa Cruz; anti-nestin clone 401 rat IgG, BD Pharmingen) in 0.1% ovalbumin/PBS, followed by incubation with the appropriate fluorescence-labeled secondary antibody (5 μg/ml Alexa 546 conjugated anti-mouse IgG, Molecular Probes; Alexa 488 conjugated anti-rabbit IgG, Molecular Probes, Cy3 conjugated anti-mouse IgM, Jackson) for 2 hours at 37° C. The nuclei were stained by treatment with 2 μg/ml Hoechst 33258 in PBS for 30 minutes at room temperature. […]

Molecule: CCCCCCC(=O)CCCCCC/C=C/C[C@@H](O)[C@H](O)[C@@](N)(CO)C(=O)O [myriocin, reference compound]
- reduction of the degree of apoptosis [1]: about 50%

Molecule: CCCCCCCCCCCCOC(=O)c1cc(O)c(O)c(O)c1 [laurylgallate, n-dodecyl ester of 3,4,5-trihydroxybenzoic acid]
- cells undergoing apoptosis ([2]; 0.5 μM laurylgallate): 50%
- cells undergone apoptosis ([2]; 1.0 μM laurylgallate): 100%

Molecule: PAR-4 specific antisense morpholino: morpholino-based antisense oligonucleotide 5′cgatagccgccggtcgccatgttcc3′ (SEQ ID NO:16) (antisense CGATAGCCGCCGGTCGCCATGTTCC; all phosphorodiamidate morpholino (PMO)) [reference compound]
- expression level of PAR-4 relative to untransfected cells [3]: about 25%
- S18-induced apoptosis ([4]; NPs transfected with PAR-4 specific antisense morpholino, then S18): less than 30%

Molecule: CCCCCCCCCCCCC/C=C/[C@@H](O)[C@H](CO)NC(C)=O [C2-ceramide, N-acetyl sphingosine, reference compound]
- dependence of apoptosis on PAR-4 expression ([1]; FB1-treated cells at the NP2 stage): only seen in cells that expressed PAR-4
- restoration of apoptosis in FB1-treated cells ([1]; NP2 stage, 30 μM C2-ceramide, 80 μM S18, or 1 μM natural ceramide): restored
- number of TUNEL stained cells ([5]; EB8 stage): 45±10%
- number of TUNEL stained cells ([5]; NP2 stage): 70±10%

Molecule: CCCCCCCCCCCCCCCC(=O)NC(CO)CO [S16, N-(2-hydroxy-1-(hydroxymethyl)ethyl)-palmitoylamide]
- number of TUNEL stained cells ([5]; EB8 stage): 45±10%
- number of TUNEL stained cells ([5]; NP2 stage): 70±10%

Molecule: CCCC[C@@H](C)[C@@H](OC(=O)C[C@@H](CC(=O)O)C(=O)O)[C@H](C[C@@H](C)C[C@H](O)CCCC[C@@H](O)C[C@H](O)[C@H](C)N)OC(=O)C[C@@H](CC(=O)O)C(=O)O [FB1, Fumonisin B1, reference compound]
- reduction of the degree of apoptosis [1]: about 50%

Molecule: LEHD-CHO [reference compound]
- effect of pre-incubation on apoptosis inducible with S18 or natural ceramide ([4]; differentiating ES cells, caspase 9 inhibitor pre-incubation): suppressed apoptosis
